{"source": "patent US20060276495A1", "about": "“Treatment methods of nasal congestion and nasal obstruction” (Schering Corporation, priority 2001, published 2006)", "key": {"[1]": {"test_system": "seasonal allergic rhinitis patients", "experiment": "four double-blinded, randomized clinical trials in seasonal allergic rhinitis patients", "assay_type": "in vivo, human", "source_text": "The clinical efficacy and safety of desloratadine has been documented in over 3,200 seasonal allergic rhinitis patients in four double-blinded, randomized clinical trials.\nEfficacy endpoints in all the studies were Total Symptom Score, Total Nasal Symptom Score, Total Non-nasal Symptom Score, and Health Quality of Life (HQOL) analysis in efficacy trials. […] An important efficacy endpoint analyzed in the desloratadine studies is the AM NOW total symptom score. This parameter measures the total symptom relief by the patient after 24 hours before taking the next day dose."}, "patients with SAR": {"test_system": "patients with SAR", "experiment": "pooled randomized, parallel-group, double-blind, placebo-controlled studies of nasal congestion/stuffiness in patients with SAR", "assay_type": "in vivo, human", "conditions": "for nasal congestion/stuffiness severity score (0-3), 14-day average change from baseline: baseline score 2.4", "procedure": "The effects of desloratadine on nasal congestion/stuffiness are described by using data pooled from randomized, parallel-group, double-blind, placebo-controlled studies of desloratadine in patients with SAR. Patients (12-75 years; pooled n-659-662/group) with a ≧2-year history of seasonal allergic rhinitis and moderate-to-[…] severe symptoms present at the time of enrollment received desloratadine (5 mg or 7.5 mg) or placebo PO once a day for 14 days. The severity (0=none, 1=mild, 2=moderate, 3=severe) of congestion/stuffiness was assessed by patients for the study duration. The 14-day average change in symptom severity score from baseline was assessed. The mean symptom severity score for nasal congestion/stuffiness was 2.4 in each treatment group at baseline, indicating patients had moderate-to-severe nasal congestion before receiving treatment."}}, "data": [{"compound": "Clc1ccc2c(c1)CCc1cccnc1C2=C1CCNCC1", "note": "[Desloratadine, desloratadine]", "values": [{"measurement": "total symptom scores (sum of individual scores for rhinorrhea, sneezing, congestion/stuffiness, nasal itching, itchy/burning eyes, tearing, ocular redness, itchy ears/palate)", "setting": "[1]; 5 mg once daily, adult and adolescent SAR patients", "result": "significantly reduced"}, {"measurement": "reducing nasal symptoms vs placebo", "setting": "[1]; 5 mg, p<0.01 vs placebo", "result": "significantly (p<0.01) more effective than placebo"}, {"measurement": "AM NOW total symptom score (symptom relief after 24 hours, before next day dose)", "setting": "[1]; entire 5 mg to 20 mg dosage range, p<0.05", "result": "Statistically significant (p<0.05) reductions were maintained for the full 24 hour dosing interval"}, {"measurement": "nasal congestion/stuffiness severity score (0-3), 14-day average change from baseline", "setting": "patients with SAR; 5 mg PO once a day for 14 days, P=0.02 vs placebo", "result": "significantly decreased"}, {"measurement": "total symptom severity", "setting": "patients with SAR; 5 mg or 7.5 mg PO once a day for 14 days, vs placebo", "result": "significantly decreased"}, {"measurement": "nasal congestion/stuffiness severity score (0-3), 14-day average change from baseline", "setting": "patients with SAR; 7.5 mg PO once a day for 14 days, P=0.01 vs placebo", "result": "significantly decreased"}]}]}
